SMILES | melting point
CCn1cc(C(=O)O)c(=O)cc1-c1cccc(N)c1 | 145 to 146 °C
CCNC(=O)Nc1cc(C(=O)OC)c(O)c2ncc(Cc3ccc(F)cc3)cc12 | 280 to 282 °C
CCCCCCCCCCCCCCCCCCOC(=O)C(N)Cc1ccc(N)cc1 (centres undefined) | 54 to 56 °C
N#Cn1nc(-c2ccccc2)c(=O)cc1Br | 152 to 155 °C
NC(CC(c1ccccc1)c1ccccc1)(C(=O)O)C1CC(C(=O)O)(C(=O)O)C1 (centres undefined) | 182 to 185 °C
CCCN(CCCc1c[nH]c2c(Cl)cccc12)C1COc2c(F)ccc(C(N)=O)c2C1 (centres undefined) | 145 to 154 °C
CC(C)c1c(CC[C@@H]2C[C@@H](O)CC(=O)O2)n(-c2ccc(F)cc2)c(=O)c2ccccc12 | 192 to 193 °C
Nc1ccc(I)cc1C(=O)c1ccccc1Cl | 120 to 122 °C
COc1ccc(-c2cc(C(=O)O)cc3ccc4c(c23)OCO4)cc1 | 264 to 266 °C
CC(=O)OCCc1ccc2c(c1)Cc1ccccc1O2 | 62 to 64 °C
CN1CCC(C(=NNc2ccccc2)c2ccccc2F)CC1 | 131 to 134 °C
CC(C)n1nc(-c2sc(N)nc2-c2ccccc2F)ccc1=O | 233 to 235 °C
CCOCCCn1cnc(-c2ccc(F)cc2)c1-c1ccncc1 | 85 to 86 °C
N#CCOc1ccc2cc(Br)ccc2c1Cl | 126 to 127 °C
CC#CCOc1ccc(S(=O)(=O)N(C)C(CCCSc2ccc(Cl)cc2)(NC)C(=O)O)cc1 (centres undefined) | 143 to 145 °C
CCOC(=O)C1=Cc2cc(C(F)(F)C(F)(F)F)ccc2OC1C(F)(F)F (centres undefined) | 162 to 165 °C
COc1ccc(S(=O)(=O)N2c3ccc(Br)cc3-c3ccccc3C2C(C)(C)C)cc1 (centres undefined) | 195 to 198 °C
CNC(=O)NC(NC(=O)C(Cl)(Cl)Cl)C(Cl)(Cl)Cl (centres undefined) | 209 to 210 °C
Cc1ccn2c(C(=O)NCc3ccccc3)c(C)nc2c1 | 166 to 167 °C
Cc1cccc(-c2n[nH]cc2-c2ccc(F)c(-c3csc(CO)n3)c2)n1 | 89 to 92 °C
CCOC(=O)C(C)Oc1ccc(Oc2cc3cc(Cl)ccc3nc2Cl)cc1 (centres undefined) | 56 °C
C#CC[C@]12CCC(=O)C=C1CC[C@@H]1[C@@H]2CC[C@]2(C)C(=O)CC[C@@H]12 | 174 to 175 °C
O=C1c2ccc(O)cc2C(=O)C1c1ccc(O)cc1 (centres undefined) | 227 to 228 °C
Cc1cccc(-c2nc3ccccn3c2-c2ccnc(-c3ccc(CN4CCOCC4)cc3)c2)n1 | 156 °C
C=CCOC(=O)CC(=O)NC1C(=O)N2C1SC(C)(C)C2C(=O)OCC=C (centres undefined) | 59 to 60 °C

SMILES | melting point
CN1CCCCC1CNC(=O)Nc1cc(OCC(F)(F)F)ccc1OCC(F)(F)F (centres undefined) | 123 to 126 °C
CN(C)C1(c2cccs2)CCC(=O)CC1 | 102 to 103 °C
CC1c2cccc3c2N(CC3)c2ccccc2N1C(=O)CCBr (centres undefined) | 149 to 151 °C
CC(C)(C)NC(=O)[C@@H]1C[C@@H]2CCCC[C@@H]2CN1C[C@@H](O)[C@@H](N)Cc1ccccc1 | 175 to 176 °C
O=C(Nc1cccc2c1C(=O)c1c-2n[nH]c1-c1ccc(C(=O)N2CCC[C@H]2CNc2ccccc2)s1)NN1CCOCC1 | > 300 °C
COc1ccc(S(=O)(=O)C2(C(=O)NO)CCN(CC=C(C)C)CC2)cc1 | 142 to 145 °C
Cc1[nH]c(C(C)(C)C)nc1C=O | 196 to 198 °C
COCc1ccoc1C(=O)c1[nH]c2cc(Cl)ccc2c1CC(=O)O | 212 to 213 °C
COC(=O)C1c2ccccc2Oc2ccccc21 | 82 °C
COc1ccc(CNc2nc(OCc3ccccn3)ncc2C(=O)c2cc(OC)c(OC)c(OC)c2)cc1NC(C)=O | 194 to 196 °C
CON=C(C)c1ccc(NS(C)(=O)=O)c(Oc2ccc(F)cc2F)c1 | 118 to 120 °C
Fc1cnccc1Nn1ccc2cc(OCc3ccccc3)ccc21 | 140 °C
O=C(O)c1c2c(nc3ccccc13)-c1cc3sc4ccccc4c3cc1CC2 | 190 to 193 °C
CCCCc1nn(-c2cc(NC(=O)c3ccccc3)ccc2C(F)(F)F)c(=O)n1Cc1ccc(-c2ccccc2S(=O)(=O)NC(=O)OC(C)(C)C)cc1F | 117 to 120 °C
CCC(=O)c1c(OC)cccc1OC | 43 to 45 °C
c1ccc(CCOCCOc2ccc(OCc3ccccc3)cc2)cc1 | 46 to 49 °C
CCn1ncnc1COc1nn2c(-c3c(F)ccc(F)c3F)nncc2c1C(C)(C)C | 42 °C
Fc1ccccc1-c1nnc(-c2ccccc2C(F)(F)F)o1 | 68 to 69 °C
O=C(Cl)c1ccccc1SCc1ccccc1 | 113 to 116 °C
Nc1ccccc1OCCCN1CCC(OC(c2ccccc2)c2ccccc2)CC1 | 86 to 88 °C
Clc1ccc2c3c(cccc13)-c1ccccc1-2 | 95 to 98 °C
CCOC(=O)C1C(=O)N(C)c2ccc(Cl)cc2S1(=O)=O (centres undefined) | 86 to 91 °C
Cc1ccccc1-c1cccc(C=CC(=O)O)c1 | 124 to 125 °C
CCn1cc(C(=O)O)c(=O)c2cc(F)c(N3CC(C)(NC(=O)C(F)(F)F)C3)c(F)c21 | 196 to 210 °C
CC(=O)Nc1ccc(CCCOCCCCCCNCC(O)c2cc(Cl)c(N)c(Cl)c2)nc1 (centres undefined) | 66 to 67 °C

SMILES | melting point
Cn1nc(-c2c(F)cccc2Cl)nc1-c1ccc(COc2ncc(C(F)(F)F)cc2Cl)c(Cl)c1 | 47 to 49 °C
COc1nc(C)c(C(C)O)cc1NC(=O)N1CCN(c2cc(C)cc(C)c2)CC1 (centres undefined) | 153 to 154 °C
COc1ccc(C(=O)c2[nH]c3cc(Cl)ccc3c2NC(C)=O)cc1 | 137 to 139 °C
N#Cc1cc(-n2nnnc2C(F)(F)F)ccc1OC(F)(F)F | 65 to 67 °C
O=C(N[C@@H]1C(=O)N[C@@H]1CO)OCc1ccccc1 | 98 to 100 °C
O=C(O)CCCC=C1SC[C@H]2[C@@H]1N(Cc1ccccc1)C(=O)N2Cc1ccccc1 | 79 to 82 °C
Cc1cc(-c2ccccc2)n2nc(Cl)nc2n1 | 179 to 181 °C
CCCN1Cc2cscc2Nc2ccccc21 | 78 to 79 °C
CC(=O)OCC1OC(SC(c2ccccc2)(c2ccccc2)c2ccccc2)C(OC(C)=O)C(OC(C)=O)C1OC(C)=O (centres undefined) | 178 to 180 °C
CCOC(=O)c1cccc(-c2ccc(C#N)cc2)c1 | 91.5 to 92 °C
CCOC(=O)CC(=O)Cn1nc(CC)c(Oc2cc(Cl)cc(Cl)c2)c1CC | 82 to 84 °C
COc1ccc(-c2[nH]c3ccc(OCc4ccccc4)cc3c2C)cc1 | 158 °C
O=C(c1ccc(Cl)cc1)c1ccc(Cl)[nH]1 | 210 to 211 °C
CCCOc1ccc(S(=O)(=O)N2CCN(C(C)=O)CC2)cc1-c1nc2cc(N)c([N+](=O)[O-])cc2c(=O)[nH]1 | 249 to 251 °C
CCc1cc(C(=O)c2ccccc2Cl)c(-n2c(Cl)nnc2CNC(=O)c2cc3ccccc3[nH]2)s1 | 254 to 256 °C
Fc1ccc(-c2ccc3c(c2)C2(CCCCC2)C(=NOCc2ccccc2)N3)cc1 | 205 to 208 °C
Oc1ccc2nc(-c3ccc4ccccc4c3)oc2c1 | 226 °C
N#Cc1c(O)cc(C(F)(F)F)cc1Cl | 138 °C
COc1ccc2c(c1)[C@H]1Cc3ccccc3[C@H]1N2 (relative stereo) | 101 °C
Cc1cn2cccc(OCc3c(Cl)ccc(S(=O)(=O)N4CCC[C@H]4C(=O)NCCCNC(=O)c4ccc(C=NN)cc4)c3Cl)c2n1 | 120 to 125 °C
CSC[C@H]1C[C@H](C(=O)O)CS1 (relative stereo) | 74.8 to 76 °C
FC(F)(F)Oc1ccc(-c2ncc(Br)cn2)cc1 | 107 to 108 °C
O=c1[nH]c2ccc(N3CCN(Cc4ccccc4)CC3)cc2c(=O)o1 | 235 °C
CC(=O)Nc1cc(F)ccc1C(=O)NCCN1CCC(O)(c2ccc(Cl)cc2)CC1 | 175 °C
CCc1[nH]n(C2CCCC2)c2nc(-c3ccccc3O)nc(=O)c1-2 | 272 to 273 °C

SMILES | melting point
CCCc1c(CSc2nnc(SCc3ccc(OCC(=O)O)cc3)s2)ccc(C(C)=O)c1O | 131 to 134 °C
O=C1c2cc([N+](=O)[O-])ccc2OCCN1CCO | 151 °C
COc1ccc2[nH]c3c(c2c1)C(C)CNC3=O (centres undefined) | 220 °C
Cc1cccc(C=CC(=O)c2ccc([N+](=O)[O-])cc2)c1 | 130 to 132 °C
CC(=NN(c1ccccc1)c1ccccc1)c1ccccn1 | 84 °C
CC(C)c1ccc(-c2ccc(-c3ccccc3)s2)s1 | 104 to 106 °C
CCOC(=O)c1cn(C2CC2)c2cc(-c3cc(C)nc(C)c3)c(F)cc2c1=O | 198 to 200 °C
CC12CCC(O)CC1=CCC1C2CCC2(C)C(n3cccn3)=CCC12 (centres undefined) | 197 to 199 °C
COC(=O)c1ccc(C(=O)O)c(NC(=O)C(F)(F)F)c1 | 185 to 186 °C
CC(C)c1cccc(C(C)C)c1NC(=O)CN1CCN(CCSc2nc3cccc(CO)c3o2)CC1 | 138 to 139 °C
O=C1CCCCCC1c1ncc[nH]1 (centres undefined) | 68 to 69 °C
CCCCCCCCCCOc1ccc(OCc2ccccc2)c(C(=O)N(CC(=O)OCC)CC(=O)OCC)c1 | 37 to 38 °C
COC(=O)C(=O)Nc1ccc(C#N)c(NC(=O)C(=O)OC)c1 | 155 to 160 °C
CC(=O)OC(C)(C)c1nnc(-c2ccc3ncn(-c4ccc(OC(F)(F)F)cc4)c3c2)o1 | 150 to 151 °C
CCC(=O)C(CCCOc1ccc(OCCCC(C(=O)CC)C(=O)CC)cc1)C(=O)CC | 57 to 58 °C
Nc1nc2c(ncn2COCCOC(=O)CCC(=O)O)c(=O)[nH]1 | 203 to 207 °C
CC(=NNC(=O)c1ccccc1)c1cccc(Cl)c1O | 202 to 203 °C
CC(C)(OC(=O)Cc1cccc(F)c1)C(=O)c1ccc(S(C)(=O)=O)cc1 | 173 °C
C=CC(=O)[C@@H]1CCCC[C@H]1C(=O)O (relative stereo) | 101 to 102 °C
CC(C)(C)COc1nc(N2CCNCC2)nc(N2CCS(=O)CC2)c1[N+](=O)[O-] | 156 to 158 °C
CC(C)OC(=O)c1nc(Cl)sc1Cl | 46 °C
CCCSc1cccc2c1C(=O)c1cccc(SCCC)c1C2=O | 232 to 233 °C
CCCCc1cn(CCC2CC2)c(=O)n1Cc1ccc(-c2ccccc2-c2nnn[nH]2)nc1 | 182 to 183 °C
Cc1ccc(OC2CCN(C(=O)C(=O)Nc3ccc4[nH]c(=O)sc4c3)CC2)cc1 | 215 to 217 °C
